Read-outs that look alike come from different tables or passages of the source.
Experiments:
[1] = target: T1, metal site of insulin R6 hexamers (Homo sapiens, UniProt P01308); details: taken from Huang et al., 1997; read-out: K4H3N; cited from earlier work
T1 construct: human insulin comprising additional amino acids, i.e. more than 51 amino acids

[2] = Disappearance rate from the subcutaneous depot following injection in pigs; type: in vivo; details: disappearance assay
Source text: Formulations of the present invention were characterized by the disappearance rate from the subcutaneous depot following injection in pigs. Formulations of B28 Asp human insulin containing A14Tyr(^125I) B28 Asp human insulin were followed with an external γ-counter (Ribel et al., The pig as a model for subcutaneous absorption in man. In: Serrano-Ritos & Lefebre (Eds.): Diabetes (1985) proceedings ot the 12th congress of the international diabetes federation, Madrid, Spain, 1985 (Excerpta Medica, Amsterdam (1986) 891-896. Formulations of Insulin Aspart (0.6 mM, U100) containing 0.3 mM Zn^2+, 30 mM phenol, 2 mM phosphate buffer, and 1.6% glycerol, pH 7.4, were compared with the corresponding formulations containing 0.3 mM of the ligands shown below: where T50% is the time when 50% ot the A14Tyr(^125I) B28 Asp insulin has disappeared from the site of injection and Kd is the affinity of the ligand as measured by the TZD-assay described in “Analytical methods” below.

[3] = target: T1, metal site of insulin R6 hexamers; assay: TZD-assay: fluorescence based displacement assay; type: binding; details: affinity towards the zinc site, TZD-assay; read-out: Kd(app)
Experimental: The binding affinity of ligands to the metal site of insulin R6 hexamers are measured in a fluorescense based displacement assay. The fluorescence of 5-(4-dimethylaminobenzylidene)thiazolidine-2,4-dione (TZD) which is a ligand for the metal site of insulin R6 is quenched upon displacement from the metal site to the solution. Titration of a ligand to a stock solution of insulin R6 hexamers with this compound mounted in the metal site allows the binding affinity of these ligands to be determined measuring the fluorescence at 455 nm upon excitation at 410 nm.
Stock solution: 0.02 mM human insulin, 0.007 mM Zn-acetate, 40 mM phenol, 0.01 mM TZD in 50 mM tris buffer adjusted to pH=8.0 with NaOH/ClO4^−.
The ligand is dissolved in DMSO to a concentration of 5 mM and added in aliquots to the stock solution to final concentrations of 0-250 µM.
Fluorescence measurements were carried out on a Perkin Elmer Spectrofluorometer LS50B. T main absorption band was excited at 410 nm and emission was detected at 455 nm. The resolution was 10 nm and 2.5 nm for excitation and emission, respectively.
This equation is fitted to the datapoints ΔF(455 nm))=ΔFmax* [ligand]free/(KD(app)*(1+[TZD]/KTZD)+[ligand]free)) KD(app) is the apparent dissociation constant and Fmax is the fluorescence at maximal ligand concentration. The value of KTZD is measured separately to 230 nM
Two different fitting-procedures can be used. One in which both parameters, KD(app) and Fmax, are adjusted to best fit the data and a second in which the value of Fmax is fixed (Fmax=1) and only KD(app) is adjusted. The given data are from the second fitting procedure. The Solver module of Microsoft Excel can be used to generate the fits from the data points.

[4] = Chemical stability of insulin formulations by RPC (reverse phase chromatography); type: physicochemical; details: formulated human insulin, 3 Zn2+ per hexamer
Experimental: (§1) The chemical stability of insulin formulations of the invention was characterised by HPLC (RPC, reverse phase chromatography and SEC, size exclusion chromatography). As reference, insulin formulated without ligands of the invention but with 0.3% DMSO was also investigated and shown below: [drawing]
FIG. 10. Reverse phase chromatography of formulated human insulin with 3 Zn^2+ per hexamer, 30 mM phenol, 150 mM mannitol, 3 mM phosphoric acid, sodium hydroxide to pH 7.4 and 0.3% DMSO corresponding to 3 ligands per hexamer at start (upper panel) and after storage for 2 weeks at 37° C. (lower panel): Preservatives before 20 min., “hydrophilic derivatives” (desamido-insulins) 20 min to main top insulin, “hydrophobic derivatives 1” main top to 64 min., and “hydrophobic derivatives 2” (insulin dimers) after 64 min.
(§2) Storage in HPLC 1 ml vials at 45° C. (5 d), 37° C. (2 w), 30° C. (6 w), 25° C. (10 w), 15° C. (30 w) gave about the same increase of transformation products correlating to an increase in reactions constants of a factor 3-4 per 10 degree.
RPC (reverse phase chromatography) on Waters SymmetryShield RP8 column, 150×4.6 mm and 3.5 μm, eluted by A: 0.2 M sodium sulfate+0.04 M sodium phosphate pH 7.2+10% acetonitrile and isocratically (i) or a gradient (g) of B: 70% acetonitrile [minutes/% B(i/g): 0/19, 21/24(i)(sudden change), 51/24(i), 81/39(g), 81.1/0(i), 82.3/19(i)] at flow of 0.9 mL/min and 30° C.

[5] = Chemical stability of insulin formulations by SEC (size exclusion chromatography); type: physicochemical; details: formulated human insulin, 3 Zn2+ per hexamer
Experimental: as §1, §2
SEC (size exclusion chromatography) on Waters insulin HMWP column, 300×7.8 mm, eluted by 15:20:65 of acetic acid: acetonitrile: arginine 1 g/L at flow of 1 mL/min and ambient temperature.

T1 sequence (P01308 25-54 limits assumed): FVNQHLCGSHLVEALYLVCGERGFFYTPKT
T1 sequence (P01308 90-110 limits assumed): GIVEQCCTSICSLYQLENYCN

Compound	effect on insulin aspart disappearance from subcutaneous injection site [2]	Kd [3]	hphil (hydrophilic derivatives, desamido-insulins) ([4]; 5° predicted)	hphob1 (hydrophobic derivatives 1) ([4]; 5° predicted)	hphob2 (hydrophobic derivatives 2, insulin dimers) ([4]; 5° predicted)	hphil (hydrophilic derivatives, desamido-insulins) ([4]; 15° C.)	hphob1 (hydrophobic derivatives 1) ([4]; 15° C.)	hphob2 (hydrophobic derivatives 2, insulin dimers) ([4]; 15° C.)	hphil (hydrophilic derivatives, desamido-insulins) ([4]; 25° C.)	hphob1 (hydrophobic derivatives 1) ([4]; 25° C.)	hphob2 (hydrophobic derivatives 2, insulin dimers) ([4]; 25° C.)	hphil (hydrophilic derivatives, desamido-insulins) ([4]; 30° C.)	hphob1 (hydrophobic derivatives 1) ([4]; 30° C.)	hphob2 (hydrophobic derivatives 2, insulin dimers) ([4]; 30° C.)	hphil (hydrophilic derivatives, desamido-insulins) ([4]; 37° C.)	hphob1 (hydrophobic derivatives 1) ([4]; 37° C.)	hphob2 (hydrophobic derivatives 2, insulin dimers) ([4]; 37° C.)	hphil (hydrophilic derivatives, desamido-insulins) ([4]; 45° C.)	hphob1 (hydrophobic derivatives 1) ([4]; 45° C.)	hphob2 (hydrophobic derivatives 2, insulin dimers) ([4]; 45° C.)	further results
O=C(O)c1ccc([N+](=O)[O-])c(O)c1 [Example 4H3N, 3-hydroxy-4-nitro benzoic acid]	–	–	–	–	–	–	–	–	–	–	–	–	–	–	–	–	–	–	–	–	Kd [1]: 50000 nM
O=C1NC(=O)/C(=C/c2cccc3ccccc23)S1 [Example 68, 5-Naphthalen-1-ylmethylenethiazolidine-2,4-dione]	no effect	23 nM	–	–	–	–	–	–	–	–	–	–	–	–	–	–	–	–	–	–	–
O=C(O)/C=C/c1ccc(/C=C2\SC(=O)NC2=O)cc1 [Example 462]	no effect	58 nM	(0.293) % formed/year	(0.336) % formed/year	(0.062) % formed/year	1.02 % formed/year	1.28 % formed/year	0.38 % formed/year	2.60 % formed/year	6.14 % formed/year	0.78 % formed/year	4.07 % formed/year	4.42 % formed/year	1.65 % formed/year	9.88 % formed/year	19.5 % formed/year	4.68 % formed/year	20.4 % formed/year	43.8 % formed/year	17.5 % formed/year	dimer ([5]; 5° predicted): (0.048) % formed/year; dimer ([5]; 15° C.): 0.28 % formed/year; dimer ([5]; 25° C.): 1.09 % formed/year; dimer ([5]; 30° C.): 2.17 % formed/year; dimer ([5]; 37° C.): 6.24 % formed/year; dimer ([5]; 45° C.): 21.2 % formed/year
O=C(O)c1cc2cc(Br)ccc2cc1O [Example 533, 7-bromo-3-hydroxy-2-naphthoic acid]	no effect	383 nM	(0.55) % formed/year	(0.19) % formed/year	(0.079) % formed/year	1.80 % formed/year	0.85 % formed/year	0.42 % formed/year	4.06 % formed/year	5.67 % formed/year	1.46 % formed/year	6.76 % formed/year	6.42 % formed/year	2.25 % formed/year	12.5 % formed/year	22.4 % formed/year	7.02 % formed/year	30.7 % formed/year	62.1 % formed/year	23.4 % formed/year	dimer ([5]; 5° predicted): (0.087) % formed/year; dimer ([5]; 15° C.): 0.45 % formed/year; dimer ([5]; 25° C.): 1.61 % formed/year; dimer ([5]; 30° C.): 2.86 % formed/year; dimer ([5]; 37° C.): 7.02 % formed/year; dimer ([5]; 45° C.): 26.3 % formed/year
O=C(O)c1ccc(Cn2c3ccccc3c3cc(-c4nn[nH]n4)ccc32)cc1 [Example 738, 9-(4-Carboxybenzyl)-3-(2H-tetrazol-5-yl)-9H-carbazole]	no effect	171 nM	–	–	–	–	–	–	–	–	–	–	–	–	–	–	–	–	–	–	–
Cc1ccccc1Cn1c2ccccc2c2cc(-c3nn[nH]n3)ccc21 [Example 756, 9-(2-Methylbenzyl)-3-(2H-tetrazol-5-yl)-9H-carbazole]	no effect	3 nM	–	–	–	–	–	–	–	–	–	–	–	–	–	–	–	–	–	–	–
